Test results published in US5571804A, “Cephalosporin antibiotics” (priority 1993, dated 1996).

How the values were obtained:
Experiment in all cases: MIC, two-fold agar dilution
Type in all cases: cell-based
Details in all cases: Muller-Hinton agar, 37° C., 20 hours
[1] = test system: Staphylococcus aureus 6538P
[2] = test system: Staphylococcus aureus giorgio
Staphylococcus aureus 77 = test system: Staphylococcus aureus 77
[3] = test system: Staphylococcus aureus 241
[4] = test system: Streptococcus laecalis 29212A
E. coli 10536 = test system: E. coli 10536
E. coli 3190Y = test system: E. coli 3190Y
E. coli 851E = test system: E. coli 851E
E. coli TEM1 1193E = test system: E. coli TEM1 1193E
E. coli TEM3 3455E = test system: E. coli TEM3 3455E
E. coli TEM5 3739E = test system: E. coli TEM5 3739E
E. coli TEM7 3457E = test system: E. coli TEM7 3457E
E. coli TEM9 2639E = test system: E. coli TEM9 2639E
[5] = test system: Pseudomonas aeruginosa 1912E
[6] = test system: Pseudomonas aeruginosa 10145
[7] = test system: Pseudomonas aeruginosa 6065
[8] = test system: Acinetobacter calcoaceticus 15473A
[9] = test system: Citrobacter diversus 2046E
[10] = test system: Enterobacter cloacae IND + VE 1194E
Enterobacter cloacae P99 = test system: Enterobacter cloacae P99
[11] = test system: Klebsiella aerogenes SHV-1 1976E
[12] = test system: Klebsiella aerogenes K1 + 1082E
Proteus vularis 6059A = test system: Proteus vularis 6059A
[13] = test system: Serratia marcescens 1826E
[14] = test system: Salmonella typhimurium 14028A
[15] = test system: Staphylococcus epidermidis 887E

Structure (SMILES)	minimal inhibitory concentration (MIC) [1]	minimal inhibitory concentration (MIC) [2]	minimal inhibitory concentration (MIC) (Staphylococcus aureus 77)	minimal inhibitory concentration (MIC) [3]	minimal inhibitory concentration (MIC) [4]	minimal inhibitory concentration (MIC) (E. coli 10536)	minimal inhibitory concentration (MIC) (E. coli 3190Y)	minimal inhibitory concentration (MIC) (E. coli 851E)	minimal inhibitory concentration (MIC) (E. coli TEM1 1193E)	minimal inhibitory concentration (MIC) (E. coli TEM3 3455E)	minimal inhibitory concentration (MIC) (E. coli TEM5 3739E)	minimal inhibitory concentration (MIC) (E. coli TEM7 3457E)	minimal inhibitory concentration (MIC) (E. coli TEM9 2639E)	minimal inhibitory concentration (MIC) [6]	minimal inhibitory concentration (MIC) [7]	minimal inhibitory concentration (MIC) [8]	minimal inhibitory concentration (MIC) [9]	minimal inhibitory concentration (MIC) [10]	minimal inhibitory concentration (MIC) (Enterobacter cloacae P99)	minimal inhibitory concentration (MIC) [11]	further results
Nc1nc(/C(=N/O[C@@H](C(=O)O)c2ccc(O)c(O)c2)C(=O)N[C@@H]2C(=O)N3C(C(=O)O)=C(CSc4nc(N)c(N)c(N)n4)CS[C@H]23)cs1 [Compound I-5R, 7-[(Z)-2-(aminothiazol-4-yl)-2-(α-carboxy-3,4-dihydroxybenzyloxyimino)acetamido]-3-(4,5,6-triaminopyrimidine-2-yl)thiomethyl-3-cephem-4-carboxylate]	2	1	32	128	16	0.063	0.063	0.13	0.25	0.25	0.25	0.063	0.5	2	8	1	1	32	32	0.25	minimal inhibitory concentration (MIC) [5]: 1; minimal inhibitory concentration (MIC) [12]: 0.5; minimal inhibitory concentration (MIC) (Proteus vularis 6059A): 0.5; minimal inhibitory concentration (MIC) [13]: 2; minimal inhibitory concentration (MIC) [14]: 0.13
Nc1cc(N)nc(SCC2=C(C(=O)O)N3C(=O)[C@@H](NC(=O)/C(=N\O[C@@H](C(=O)O)c4ccc(O)c(O)c4)c4csc(N)n4)[C@H]3SC2)n1 [Compound I-1R, 7-[(Z)-2-(aminothiazol-4-yl)-2-(α-carboxy-3,4-dihydroxybenzyloxyimino)acetamido]-3-(4,6-diamino-pyrimidine-2-yl) thiomethyl-3-cephem-4-carboxylate]	2	1	32	128	16	0.063	0.13	0.13	0.25	0.25	0.25	0.063	0.5	2	8	1	1	32	32	0.5	minimal inhibitory concentration (MIC) [5]: 1; minimal inhibitory concentration (MIC) [12]: 0.5; minimal inhibitory concentration (MIC) (Proteus vularis 6059A): 0.5; minimal inhibitory concentration (MIC) [13]: 2; minimal inhibitory concentration (MIC) [14]: 0.13
Nc1ccnc(SCC2=C(C(=O)O)N3C(=O)[C@@H](NC(=O)/C(=N\O[C@@H](C(=O)O)c4ccc(O)c(O)c4)c4csc(N)n4)[C@H]3SC2)n1 [Compound I-3R, 7-[(Z)-2-(aminothiazol-4-yl)-2-(α-carboxyl-3,4-dihydroxybenzyloxyimino)acetamido]-3-(4-amino-pyrimidine-2-yl) thiomethyl-3-cephem-4-carboxylate]	2	2	16	128	32	0.031	0.13	0.13	0.5	0.25	0.25	0.016	0.5	2	8	1	2	32	16	1	minimal inhibitory concentration (MIC) [5]: 1; minimal inhibitory concentration (MIC) [12]: 0.5; minimal inhibitory concentration (MIC) (Proteus vularis 6059A): 0.5; minimal inhibitory concentration (MIC) [13]: 2
Nc1nc(/C(=N/O[C@@H](C(=O)O)c2ccc(O)c(O)c2)C(=O)N[C@@H]2C(=O)N3C(C(=O)O)=C(CSc4nc(N)c5c(n4)CCC5)CS[C@H]23)cs1 [Compound I-4R, 7-[(Z)-2-(aminothiazol-4-yl)-2-(α-carboxyl-3,4-dihydroxybenzyioxyimino)acetamido]-3-(4-amino-5,6-cyclopentapyrimidine-2-yl)thiomethyl-3-cephem-4-carboxylate]	2	2	32	128	16	0.063	0.25	0.13	0.5	0.25	0.25	0.063	0.5	2	8	1	2	32	32	0.5	minimal inhibitory concentration (MIC) [15]: 32; minimal inhibitory concentration (MIC) [12]: 1; minimal inhibitory concentration (MIC) (Proteus vularis 6059A): 0.5; minimal inhibitory concentration (MIC) [13]: 2; minimal inhibitory concentration (MIC) [14]: 0.13
Cc1c(N)nc(SCC2=C(C(=O)O)N3C(=O)[C@@H](NC(=O)/C(=N\O[C@@H](C(=O)O)c4ccc(O)c(O)c4)c4csc(N)n4)[C@H]3SC2)nc1N [Compound I-2R, 7-[(Z)-2-(aminothiazol-4-yl)-2-(α-carboxyl-3,4-dihydroxybenzyloxyimino)acetamido]-3-(4,6-diamino-5-methylpyrimidine-2-yl)thiomethyl-3-cephem-4-carboxylate]	2	1	32	128	32	0.063	0.13	0.13	0.5	0.25	0.25	0.016	0.5	2	8	1	2	32	32	0.5	minimal inhibitory concentration (MIC) [12]: 1; minimal inhibitory concentration (MIC) (Proteus vularis 6059A): 0.5; minimal inhibitory concentration (MIC) [13]: 2; minimal inhibitory concentration (MIC) [14]: 0.25
